Source: ChEMBL document CHEMBL5325501, “Discovery of BWA-522, a First-in-Class and Orally Bioavailable PROTAC Degrader of the Androgen Receptor Targeting N-Terminal Domain for the Treatment of Prostate Cancer” (J Med Chem, 2023)
Active and inactive are the calls of the source. No cut-off for these calls is given here.

Legend:
CWR22R [1] = assay: Cytotoxicity against human 22Rv1 cells assessed as cell death at 5 uM; format: toxicity, cell-based
PC-3 [2] = assay: Cytotoxicity against human PC-3 cells assessed as cell death at 5 uM; format: toxicity, cell-based; conditions: pc-3, 5 µM
CWR22R [3] = assay: Antiproliferative activity against enzalutamide-resistant human 22Rv1 cells assessed as reduction in cell viability incubated for 6 days by CCK-8 assay; format: functional, cell-based; conditions: 22Rv1, 144 h
LNCaP [4] = assay: Antitumor activity against human LNCaP cells xenografted in NOD SCID mouse assessed as tumor growth inhibition at 180 mg/kg, po administered daily for 4 weeks relative to control; format: functional; conditions: 672 h, read-out: TGI
LNCaP [5] = assay: Inhibition of colony formation in human LNCaP cells at 1 to 10 uM incubated for 2 weeks by crystal violet staining based analysis; format: functional, cell-based; conditions: dose 1-10 µM
VCaP = assay: Antiproliferative activity against human VCaP cells assessed as reduction in cell viability incubated for 6 days by CCK-8 assay; format: functional, cell-based; conditions: 144 h
CWR22R [6] = assay: Inhibition of colony formation in human 22Rv1 cells at 1 to 10 uM incubated for 2 weeks by crystal violet staining based analysis; format: functional, cell-based; conditions: dose 1-10 µM
LNCaP [7] = assay: Antiproliferative activity against human LNCaP cells assessed as reduction in cell viability incubated for 6 days by CCK-8 assay; format: functional, cell-based; conditions: 144 h
[8] = biological target: T1, von Hippel-Lindau disease tumor suppressor/Androgen receptor (Homo sapiens, UniProt P10275+P40337); assay: PROTAC activity at VHL/AR-V7 in human 22Rv1 cells assessed as induction of AR degradation by Immunoblot analysis; format: cell-based
Target sequence in this assay (P10275 whole entry, looked up, change not shown): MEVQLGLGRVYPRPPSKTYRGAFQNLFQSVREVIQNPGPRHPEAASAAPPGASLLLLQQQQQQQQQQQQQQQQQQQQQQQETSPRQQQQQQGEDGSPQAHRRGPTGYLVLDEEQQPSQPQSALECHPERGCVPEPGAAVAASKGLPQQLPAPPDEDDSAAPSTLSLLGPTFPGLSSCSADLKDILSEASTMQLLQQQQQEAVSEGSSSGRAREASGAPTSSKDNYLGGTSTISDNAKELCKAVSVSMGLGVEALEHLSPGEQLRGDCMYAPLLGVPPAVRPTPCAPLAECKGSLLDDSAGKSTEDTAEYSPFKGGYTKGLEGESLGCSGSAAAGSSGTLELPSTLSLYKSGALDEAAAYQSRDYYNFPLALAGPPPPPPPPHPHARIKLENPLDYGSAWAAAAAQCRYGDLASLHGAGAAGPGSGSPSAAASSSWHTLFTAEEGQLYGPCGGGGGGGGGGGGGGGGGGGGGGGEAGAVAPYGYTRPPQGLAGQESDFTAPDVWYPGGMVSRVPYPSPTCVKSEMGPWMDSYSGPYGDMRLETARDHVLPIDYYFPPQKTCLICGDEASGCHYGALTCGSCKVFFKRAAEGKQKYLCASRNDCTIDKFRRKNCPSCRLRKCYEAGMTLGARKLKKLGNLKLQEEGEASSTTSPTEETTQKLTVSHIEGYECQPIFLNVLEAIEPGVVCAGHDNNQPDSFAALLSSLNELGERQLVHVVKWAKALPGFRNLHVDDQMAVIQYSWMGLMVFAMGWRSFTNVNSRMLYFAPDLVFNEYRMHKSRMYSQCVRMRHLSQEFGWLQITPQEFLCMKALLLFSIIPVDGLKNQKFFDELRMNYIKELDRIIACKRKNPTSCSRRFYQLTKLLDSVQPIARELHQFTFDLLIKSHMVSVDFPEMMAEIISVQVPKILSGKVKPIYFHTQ
Target sequence in this assay (P40337 whole entry, looked up, change not shown): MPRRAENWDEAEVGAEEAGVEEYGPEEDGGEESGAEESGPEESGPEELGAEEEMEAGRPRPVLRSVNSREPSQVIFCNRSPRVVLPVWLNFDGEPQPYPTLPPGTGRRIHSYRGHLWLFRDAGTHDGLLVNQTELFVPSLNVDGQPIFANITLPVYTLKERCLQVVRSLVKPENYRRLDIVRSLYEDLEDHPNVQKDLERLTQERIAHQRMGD

[9] = AUC(0 to t) in ICR mouse at 2 mg/kg, iv measured by LC-MS/MS analysis; format: ADME, organism-based; set-up: dose 2 mg/kg, route iv; conditions: in vivo
[10] = Oral bioavailability in ICR mouse at 10 mg/kg measured by LC-MS/MS analysis; format: ADME, organism-based; conditions: in vivo
[11] = AUC(0 to t) in ICR mouse at 10 mg/kg, po measured by LC-MS/MS analysis; format: ADME, organism-based; set-up: dose 10 mg/kg, route po; conditions: in vivo
[12] = Half-life in ICR mouse at 2 mg/kg, iv measured by LC-MS/MS analysis; format: ADME, organism-based; conditions: in vivo
[13] = Half-life in ICR mouse at 10 mg/kg, po measured by LC-MS/MS analysis; format: ADME, organism-based; conditions: in vivo
[14] = Cmax in ICR mouse at 10 mg/kg, po measured by LC-MS/MS analysis; format: ADME, organism-based; set-up: dose 10 mg/kg, route po; conditions: in vivo
[15] = Tmax in ICR mouse at 2 mg/kg, iv measured by LC-MS/MS analysis; format: ADME, organism-based; conditions: in vivo
[16] = Cmax in ICR mouse at 2 mg/kg, iv measured by LC-MS/MS analysis; format: ADME, organism-based; set-up: dose 2 mg/kg, route iv; conditions: in vivo
[17] = Clearance in ICR mouse at 2 mg/kg, iv measured by LC-MS/MS analysis; format: ADME, organism-based; conditions: in vivo
[18] = Tmax in ICR mouse at 10 mg/kg, po measured by LC-MS/MS analysis; format: ADME, organism-based; conditions: in vivo
[19] = system: Protein cereblon/Androgen receptor (Homo sapiens), P10275+Q96SW2 [UNDEFINED MUTATION]; assay: PROTAC activity at CRBN/AR-V7 in human 22Rv1 cells assessed as induction of AR degradation at 0.03 to 1 uM incubated for 24 hrs by Western blot analysis; format: cell-based; conditions: dose 0.03-1 µM
[20] = Cytotoxicity against human PC-3 cells assessed as inhibition of cell growth incubated for 6 days; format: toxicity, cell-based
PC-3 [21] = assay: Cytotoxicity against human PC-3 cells assessed as cell death at high concentration incubated for 24 hrs; format: toxicity, cell-based; conditions: pc-3, 24 h
[22] = system: Protein cereblon/Androgen receptor (Homo sapiens), P10275+Q96SW2 [UNDEFINED MUTATION]; assay: PROTAC activity at CRBN/AR-V7 in human […] cells assessed as induction of AR degradation at 0.03 to 1 uM incubated for 24 hrs by Western blot analysis; format: cell-based; conditions: dose 0.03-1 µM
[23] = biological target: T2, Protein cereblon/Androgen receptor (Homo sapiens) (UniProt P10275+Q96SW2); assay: PROTAC activity at CRBN/full-length AR in human […] cells assessed as induction of AR degradation at 0.03 to 1 uM incubated for 24 hrs by Western blot analysis; format: cell-based; conditions: dose 0.03-1 µM
[24] = biological target: T2, Protein cereblon/Androgen receptor (Homo sapiens); assay: PROTAC activity at CRBN/full-length AR in human 22Rv1 cells assessed as induction of AR degradation at 0.03 to 1 uM incubated for 24 hrs by Western blot analysis; format: cell-based; conditions: dose 0.03-1 µM
CWR22R [25] = assay: Cytotoxicity against human 22Rv1 cells assessed as cell death at high concentration incubated for 24 hrs; format: toxicity, cell-based
[26] = biological target: T1, von Hippel-Lindau disease tumor suppressor/Androgen receptor; assay: PROTAC activity at VHL/full-length AR in human LNCaP cells assessed as induction of AR degradation at 1 uM by Western blot analysis relative to control; format: cell-based
Target sequence in this assay (P10275 whole entry, looked up): as the sequence (P10275 whole entry, looked up, change not shown) above
Target sequence in this assay (P40337 whole entry, looked up): as the sequence (P40337 whole entry, looked up, change not shown) above

[27] = biological target: T1, von Hippel-Lindau disease tumor suppressor/Androgen receptor; assay: PROTAC activity at VHL/full-length AR in human LNCaP cells assessed as induction of AR degradation at 5 uM by Western blot analysis relative to control; format: cell-based
Target sequence in this assay (P10275 whole entry, looked up): as the sequence (P10275 whole entry, looked up, change not shown) above
Target sequence in this assay (P40337 whole entry, looked up): as the sequence (P40337 whole entry, looked up, change not shown) above

[28] = biological target: T1, von Hippel-Lindau disease tumor suppressor/Androgen receptor; assay: PROTAC activity at VHL/full-length AR in human VCaP cells assessed as induction of AR degradation at 5 uM by Western blot analysis relative to control; format: cell-based
Target sequence in this assay (P10275 whole entry, looked up): as the sequence (P10275 whole entry, looked up, change not shown) above
Target sequence in this assay (P40337 whole entry, looked up): as the sequence (P40337 whole entry, looked up, change not shown) above

[29] = biological target: T1, von Hippel-Lindau disease tumor suppressor/Androgen receptor; assay: PROTAC activity at VHL/full-length AR in human VCaP cells assessed as induction of AR degradation at 1 uM by Western blot analysis relative to control; format: cell-based
Target sequence in this assay (P10275 whole entry, looked up): as the sequence (P10275 whole entry, looked up, change not shown) above
Target sequence in this assay (P40337 whole entry, looked up): as the sequence (P40337 whole entry, looked up, change not shown) above

[30] = system: von Hippel-Lindau disease tumor suppressor/Androgen receptor (Homo sapiens), P10275+P40337 [UNDEFINED MUTATION]; assay: PROTAC activity at VHL/AR-V7 in human VCaP cells assessed as induction of AR degradation at 1 uM by Western blot analysis relative to control; format: cell-based
[31] = system: von Hippel-Lindau disease tumor suppressor/Androgen receptor (Homo sapiens), P10275+P40337 [UNDEFINED MUTATION]; assay: PROTAC activity at VHL/AR-V7 in human VCaP cells assessed as induction of AR degradation at 5 uM by Western blot analysis relative to control; format: cell-based
RWPE-1 = assay: Cytotoxicity against human RWPE-1 cells assessed as reduction in cell viability incubated for 6 days by CCK8 assay; format: toxicity, cell-based; conditions: rwpe-1, 144 h, time 6 day
LNCaP [32] = assay: Antitumor activity against human LNCaP cells xenografted in NOD SCID mouse assessed as tumor growth inhibition at 10 mg/kg, po administered daily for 4 weeks relative to control; conditions: 672 h, read-out: TGI

T2 sequence (P10275 whole entry, looked up): as the sequence (P10275 whole entry, looked up, change not shown) above
T2 sequence (Q96SW2 whole entry, looked up): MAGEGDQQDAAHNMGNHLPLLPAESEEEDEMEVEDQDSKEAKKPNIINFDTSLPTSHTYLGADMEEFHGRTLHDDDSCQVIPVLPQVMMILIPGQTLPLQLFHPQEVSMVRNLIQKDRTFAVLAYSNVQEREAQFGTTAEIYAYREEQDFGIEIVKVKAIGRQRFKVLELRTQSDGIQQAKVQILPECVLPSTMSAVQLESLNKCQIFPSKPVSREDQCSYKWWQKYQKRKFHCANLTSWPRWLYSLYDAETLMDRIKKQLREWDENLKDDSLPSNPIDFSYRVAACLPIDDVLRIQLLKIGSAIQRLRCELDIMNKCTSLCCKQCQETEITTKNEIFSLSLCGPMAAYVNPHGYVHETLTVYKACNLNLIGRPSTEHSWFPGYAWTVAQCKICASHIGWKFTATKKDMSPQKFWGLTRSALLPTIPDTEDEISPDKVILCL
Protein cereblon/Androgen receptor (Homo sapiens), P10275+Q96SW2 [UNDEFINED MUTATION], sequence (P10275 whole entry, looked up, stated change not applied): as the sequence (P10275 whole entry, looked up, change not shown) above
Protein cereblon/Androgen receptor (Homo sapiens), P10275+Q96SW2 [UNDEFINED MUTATION], sequence (Q96SW2 whole entry, looked up, stated change not applied): as the sequence (Q96SW2 whole entry, looked up) above
von Hippel-Lindau disease tumor suppressor/Androgen receptor (Homo sapiens), P10275+P40337 [UNDEFINED MUTATION], sequence (P10275 whole entry, looked up, stated change not applied): as the sequence (P10275 whole entry, looked up, change not shown) above
von Hippel-Lindau disease tumor suppressor/Androgen receptor (Homo sapiens), P10275+P40337 [UNDEFINED MUTATION], sequence (P40337 whole entry, looked up, stated change not applied): as the sequence (P40337 whole entry, looked up, change not shown) above

SMILES: CC(C)(c1ccc(OCC2CCN(CC3CCN(CC4CCN(c5cccc6c5C(=O)N(C5CCC(=O)NC5=O)C6=O)CC4)CC3)CC2)cc1)c1ccc(OC[C@H](O)CCl)cc1 (stereo not given in full)
- Activity (CWR22R [1]): Toxic
- Activity (PC-3 [2]): Toxic

SMILES: CC(C)(c1ccc(OC[C@H](O)CO)cc1)c1ccc(OC[C@H](O)CCl)cc1
- IC50 (CWR22R [3]): > 30000 nM
- inhibition in vivo at 180 mg/kg (LNCaP [4]): 43%
- inhibition (LNCaP [5]): inactive
- IC50 (VCaP): > 30000 nM
- inhibition (CWR22R [6]): inactive
- IC50 (LNCaP [7]): > 30000 nM

SMILES: CC(C)(c1ccc(OCC2CCN(CC3CCN(C4CCN(c5cccc6c5C(=O)N(C5CCC(=O)NC5=O)C6=O)CC4)CC3)CC2)cc1)c1ccc(OC[C@H](O)CCl)cc1 (stereo not given in full)
- Activity (CWR22R [1]): Toxic
- Activity (PC-3 [2]): Toxic

SMILES: Cc1ncsc1-c1ccc([C@H](C)NC(=O)[C@@H]2C[C@@H](O)CN2C(=O)[C@@H](NC(=O)CCCCNC(=O)COc2c(-c3csc(N4CCOCC4)n3)ccc(F)c2F)C(C)(C)C)cc1
- EC50 [8]: 370 nM

SMILES: CC(C)(c1ccc(OCC2CCN(C(=O)CCCNc3ccc4c(c3)C(=O)N(C3CCC(=O)NC3=O)C4=O)CC2)cc1)c1ccc(OC[C@H](O)CCl)cc1 (stereo not given in full)
- AUC(0-t) [9]: 303 ng·h/mL
- bioavailability [10]: 7.8%
- AUC(0-t) [11]: 113 ng·h/mL
- half-life [12]: 0.5 h
- half-life [13]: 1.8 h
- Cmax [14]: 130 ng/mL
- Tmax [15]: 6 min
- Cmax [16]: 518 ng/mL
- clearance [17]: 111 mL/min/kg
- Tmax [18]: 0.2 h

SMILES: CC(C)(c1ccc(OCC2CCN(CC3CCN(C4CCN(c5ccc6c(c5)C(=O)N(C5CCC(=O)NC5=O)C6=O)CC4)CC3)CC2)cc1)c1ccc(OC[C@H](O)CCl)cc1 (stereo not given in full)
- Activity [19]: inactive
- IC50 at 6 days [20]: 1030 nM
- Activity (PC-3 [21]): Toxic
- Activity [22]: inactive
- Activity [23]: inactive
- Activity [24]: inactive
- Activity (CWR22R [25]): Toxic

SMILES: Cc1ncsc1-c1ccc(CNC(=O)[C@@H]2C[C@@H](O)CN2C(=O)[C@@H](NC(=O)Cn2cc(CCCCCOc3ccc(C(C)(C)c4ccc(OC[C@H](O)CCl)cc4)cc3)nn2)C(C)(C)C)cc1
- Activity [26]: 27.5%
- Activity [27]: 31.9%
- Activity [28]: 39.6%
- Activity [29]: 48.9%
- Activity [30]: 38.1%
- Activity [31]: 48.2%

SMILES: CNC(=O)c1ccc(N2C(=S)N(c3ccc(C#N)c(C(F)(F)F)c3)C(=O)C2(C)C)cc1F [ENZALUTAMIDE]
- Activity (RWPE-1): Non-Toxic
- inhibition in vivo at 10 mg/kg (LNCaP [32]): 72%

SMILES: Cc1ncsc1-c1ccc(CNC(=O)[C@@H]2C[C@@H](O)CN2C(=O)[C@@H](NC(=O)Cn2cc(CCCOc3ccc(C(C)(C)c4ccc(OC[C@H](O)CCl)cc4)cc3)nn2)C(C)(C)C)cc1
- Activity [26]: 17.6%
- Activity [27]: 27.9%
- Activity [28]: 31%
- Activity [29]: 18.4%
- Activity [30]: 45.9%
- Activity [31]: 63.3%

SMILES: CC(C)(c1ccc(OCC2CCN(CC3CCN(CC4CCN(c5ccc6c(c5)C(=O)N(C5CCC(=O)NC5=O)C6=O)CC4)CC3)CC2)cc1)c1ccc(OC[C@H](O)CCl)cc1 (stereo not given in full)
- Activity [19]: inactive
- IC50 at 6 days [20]: 1370 nM
- Activity (PC-3 [21]): Toxic
- Activity [22]: inactive
- Activity [23]: inactive
- Activity [24]: inactive
- Activity (CWR22R [25]): Toxic

SMILES: CC(C)(c1ccc(OCC2CCN(CC3CN(C4CCN(c5cccc6c5C(=O)N(C5CCC(=O)NC5=O)C6=O)CC4)C3)CC2)cc1)c1ccc(OC[C@H](O)CCl)cc1 (stereo not given in full)
- AUC(0-t) [9]: 645 ng·h/mL
- bioavailability [10]: 12.3%
- AUC(0-t) [11]: 332 ng·h/mL
- half-life [12]: 13.6 h
- half-life [13]: 20.5 h
- Cmax [14]: 47 ng/mL
- Tmax [15]: 6 min
- Cmax [16]: 662 ng/mL
- clearance [17]: 38.6 mL/min/kg
- Tmax [18]: 2 h

SMILES: Cc1ncsc1-c1ccc(CNC(=O)[C@@H]2C[C@@H](O)CN2C(=O)[C@@H](NC(=O)Cn2cc(CCCCOc3ccc(C(C)(C)c4ccc(OC[C@H](O)CCl)cc4)cc3)nn2)C(C)(C)C)cc1
- Activity [26]: 22%
- Activity [27]: 36.6%
- Activity [28]: 53.5%
- Activity [29]: 43.2%
- Activity [30]: 56.4%
- Activity [31]: 59.5%
